Measurements: patent US9387209B2, “Histone deacetylases (HDACs) inhibitors” (ANNJI PHARMACEUTICAL CO., LTD., priority 2012, dated 2016)

Legend:
PC 12 cells [1] = assay: Neurite synaptic uptake activity (FM1-43), PC 12; format: cell-based; conditions: Rattus norvegicus, NGF positive control taken as 100%, read-out: uptake of dye FM1-43 EC50
Protocol: (§1) Neurite Synaptic Uptake Activity Analysis.
(§2) The effects of compounds on the neuronal synapse uptake of fluorescent indicator FM1-43 were assayed. The uptake of the dye indicated the synaptic function of the neurites. PC 12 and SH-SY5Y cells were used. Cells in experimental groups were treated with a test compound and FM1-43; Cells in positive control were treated with NGF and FM1-43; Cells in negative control were treated with a vehicle and FM1-43. The fluorescence in the positive control were taken as 100%.

[2] = molecular target: T1, zinc-mediated β-amyloid aggregation (Homo sapiens, UniProt P05067); assay: Anti-amyloid aggregation assay, BCA; format: biochemical; conditions: detected by BCA
Protocol: (§3) Anti-Amyloid Aggregation Assay.
(§4) The effects of compounds on inhibition of β-amyloid aggregation were assayed. The levels of β-amyloid aggregates were determined by thioflavin S, BCA or CR assays (Tables 1). Thioflavin S, and Congo red are for in vitro staining of aggregated β-amyloid. Bicinchoninic acid (BCA) assay determines the total protein level or concentration.

[3] = molecular target: T2, human histone deacetylases (HDAC) 8 (Homo sapiens, UniProt Q9BY41); assay: HDAC enzymatic assay, HDAC8; format: biochemical; conditions: HDAC8; read-out: IC50 HDAC8 (grading)
T2 sequence (Q9BY41 1-377): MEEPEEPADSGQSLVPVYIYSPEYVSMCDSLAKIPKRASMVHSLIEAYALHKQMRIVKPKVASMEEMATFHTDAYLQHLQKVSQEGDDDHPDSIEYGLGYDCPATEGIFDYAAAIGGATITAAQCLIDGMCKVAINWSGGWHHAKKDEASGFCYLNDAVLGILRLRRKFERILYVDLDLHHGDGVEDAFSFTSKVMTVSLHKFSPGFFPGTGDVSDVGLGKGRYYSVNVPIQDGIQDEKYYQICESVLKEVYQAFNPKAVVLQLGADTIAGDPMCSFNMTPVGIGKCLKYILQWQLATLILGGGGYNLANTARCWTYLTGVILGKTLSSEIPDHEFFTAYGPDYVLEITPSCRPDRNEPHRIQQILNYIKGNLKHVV

[4] = molecular target: T1, zinc-mediated β-amyloid aggregation; assay: Anti-amyloid aggregation assay, CR (Congo red); format: biochemical; conditions: detected by CR
Protocol: as §3, §4

SH-SY5Y cells [5] = assay: Neurite synaptic uptake activity (FM1-43), SH-SY5Y; format: cell-based; conditions: Homo sapiens, NGF positive control taken as 100%, read-out: uptake of dye FM1-43 EC50
Protocol: as §1, §2

[6] = molecular target: human histone deacetylases (HDAC) 1 (Homo sapiens, UniProt Q13547); assay: HDAC enzymatic assay, HDAC1; format: biochemical; conditions: read-out: IC50 HDAC1 (grading)
[7] = molecular target: T3, human histone deacetylases (HDAC) 6 (Homo sapiens, UniProt Q9UBN7); assay: HDAC enzymatic assay, HDAC6; format: biochemical; conditions: for IC50: HDAC6, read-out: IC50 HDAC6 (grading); for selective inhibitions on HDAC6: HDAC6 versus other HDACs
T3 sequence (Q9UBN7 1-1215): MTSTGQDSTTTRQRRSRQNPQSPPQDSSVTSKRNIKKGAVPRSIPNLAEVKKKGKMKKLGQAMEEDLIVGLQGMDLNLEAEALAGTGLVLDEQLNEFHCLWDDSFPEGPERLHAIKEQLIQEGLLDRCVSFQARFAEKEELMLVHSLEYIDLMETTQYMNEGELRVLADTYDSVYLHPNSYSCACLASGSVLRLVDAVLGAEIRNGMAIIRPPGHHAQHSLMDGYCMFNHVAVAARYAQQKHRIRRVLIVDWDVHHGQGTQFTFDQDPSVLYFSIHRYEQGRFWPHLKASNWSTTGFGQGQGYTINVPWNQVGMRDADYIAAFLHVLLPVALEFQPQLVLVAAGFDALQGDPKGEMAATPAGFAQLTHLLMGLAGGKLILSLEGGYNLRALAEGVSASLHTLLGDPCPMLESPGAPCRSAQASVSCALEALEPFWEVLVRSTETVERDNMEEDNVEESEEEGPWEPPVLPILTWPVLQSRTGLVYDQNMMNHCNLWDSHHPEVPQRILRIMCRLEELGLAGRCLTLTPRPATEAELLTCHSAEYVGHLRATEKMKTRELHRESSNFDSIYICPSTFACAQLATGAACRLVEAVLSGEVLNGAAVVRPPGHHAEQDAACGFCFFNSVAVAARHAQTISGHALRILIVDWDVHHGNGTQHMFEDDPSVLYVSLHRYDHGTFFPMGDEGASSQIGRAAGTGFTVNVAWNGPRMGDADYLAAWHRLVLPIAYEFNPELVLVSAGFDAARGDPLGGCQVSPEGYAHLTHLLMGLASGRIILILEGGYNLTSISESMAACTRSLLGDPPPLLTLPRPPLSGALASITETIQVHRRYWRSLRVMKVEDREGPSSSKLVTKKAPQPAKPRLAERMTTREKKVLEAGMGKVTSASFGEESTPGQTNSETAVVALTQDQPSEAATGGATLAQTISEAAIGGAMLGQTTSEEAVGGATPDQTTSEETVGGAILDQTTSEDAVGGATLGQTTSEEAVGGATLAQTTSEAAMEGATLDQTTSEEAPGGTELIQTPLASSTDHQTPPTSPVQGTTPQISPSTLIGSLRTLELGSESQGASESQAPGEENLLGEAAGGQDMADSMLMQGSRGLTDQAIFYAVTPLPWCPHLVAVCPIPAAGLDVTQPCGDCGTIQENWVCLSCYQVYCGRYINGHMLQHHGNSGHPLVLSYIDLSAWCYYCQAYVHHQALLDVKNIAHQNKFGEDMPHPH

PC 12 cells [8] = assay: Neurite outgrowth assay, PC 12; format: cell-based; conditions: Rattus norvegicus
SH-SY5Y cells [9] = assay: Neurite outgrowth assay, SH-SY5Y; format: cell-based; conditions: Homo sapiens
[10] = molecular target: T1, zinc-mediated β-amyloid aggregation; assay: Anti-amyloid aggregation assay, thioflavin S; format: biochemical; conditions: detected by thioflavin S
Protocol: as §3, §4

[11] = system: hippocampus-lesioned mice; assay: Rotarod test in Alzheimer disease model; format: in vivo; conditions: daily i.p. 10 mg/kg for 30 days, compared to vehicle
From the text: To test the effect of the compound in improving the learning ability of the animals in Alzheimer disease model, β-aggregates-induced hippocampal lesions were used to generate learning-impaired mice.

[12] = MTT or SRB assay for cytotoxicity, A549; format: cell-based; conditions: human, A549 cells, read-out: cytotoxicity IC50 (grading) A549
Protocol: (§5) MTT or SRB Assays for Cytotoxicities of HDAC Inhibitors.
(§6) These compounds were assayed for cytotoxicities to the following cells: A549 cells (adenocarcinomic human alveolar basal epithelial cells), HCT-116 cells (human colon carcinoma cells). PANC-1 cells (human pancreatic carcinoma, epithelial-like cell line) and HepG2 cells (human liver hepatocellular carcinoma cell line), neuronal cells PC12 (rat pheochromocytoma cell line) and SH-SY5Y (human neuroblastoma cell line). MTT (3-[4,5-dimethylthiazol-2-yl]2,5-diphenyl-tetrazolium bromide) reduction was collaborated by using trypan blue exclusion assay.

[13] = MTT or SRB assay for cytotoxicity, PANC1; format: cell-based; conditions: human, PANC-1 cells, read-out: cytotoxicity IC50 (grading) PANC1
Protocol: as §5, §6

[14] = MTT or SRB assay for cytotoxicity, HepG2; format: cell-based; conditions: human, HepG2 cells, read-out: cytotoxicity IC50 (grading) HepG2
Protocol: as §5, §6

[15] = MTT or SRB assay for cytotoxicity, HCT116; format: cell-based; conditions: human, HCT-116 cells, read-out: cytotoxicity IC50 (grading) HCT116
Protocol: as §5, §6

T1 sequence (P05067 672-711 limits assumed): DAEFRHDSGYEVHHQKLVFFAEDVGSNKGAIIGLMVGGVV
Sequence of human histone deacetylases (HDAC) 1 (Q13547 whole entry): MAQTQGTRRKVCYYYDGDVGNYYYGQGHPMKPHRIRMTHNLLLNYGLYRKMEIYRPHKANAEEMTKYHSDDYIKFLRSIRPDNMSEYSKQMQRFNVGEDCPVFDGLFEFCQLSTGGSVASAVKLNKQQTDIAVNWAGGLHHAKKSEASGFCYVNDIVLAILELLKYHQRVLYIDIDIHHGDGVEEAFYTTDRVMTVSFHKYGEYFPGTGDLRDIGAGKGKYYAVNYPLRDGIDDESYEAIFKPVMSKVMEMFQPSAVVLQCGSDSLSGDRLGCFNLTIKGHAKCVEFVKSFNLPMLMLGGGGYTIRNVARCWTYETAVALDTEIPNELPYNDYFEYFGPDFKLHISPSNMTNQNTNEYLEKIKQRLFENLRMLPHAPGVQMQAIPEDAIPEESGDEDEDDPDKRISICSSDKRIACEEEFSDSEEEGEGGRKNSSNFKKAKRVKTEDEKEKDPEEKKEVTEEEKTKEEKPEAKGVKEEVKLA

Row | EC50 (PC 12 cells [1]) [µM] | IC50 [2] [µM] | IC50 [3] [µM] | IC50 [4] [µM] | EC50 (SH-SY5Y cells [5]) [µM] | IC50 [6] [µM] | IC50 [7] [µM] | selective inhibitions on HDAC6 [7] | EC50 (SH-SY5Y cells [9]) [µM] | IC50 [10] [µM] | melting point | Structure (SMILES) | EC50 (PC 12 cells [8]) [µM] | learning performance in rotarod test [11] | IC50 [12] [µM] | IC50 [13] [µM] | IC50 [14] [µM] | IC50 [15] [µM]
1 | 7.81 ± 0.65 | 11.7 | 0.1 to 1 | 14.5 | 8.03 ± 0.53 | > 10 | 0.1 to 1 | – | – | – | – | Cc1nc2c(/C=C/C(=O)NO)cccc2c(=O)n1-c1ccccc1 [Compound 1d, (2E)-3-(3,4-dihydro-2-methyl-4-oxo-3-phenylquinazolin-8-yl)-N-hydroxyacrylamide] | – | – | – | – | – | –
2 | 8.21 ± 0.37 | 10.6 | 1 to 10 | 5.8 | 8.2 ± 0.92 | 1 to 10 | < 0.1 | selective inhibitions on HDAC6 | 8.2 ± 0.92 | 18.1 | – | Cc1nc2cc(/C=C/C(=O)NO)ccc2c(=O)n1Cc1ccccc1 [Compound 1e, (2E)-3-(3-benzyl-3,4-dihydro-2-methyl-4-oxoquinazolin-7-yl)-N-hydroxyacrylamide] | 8.21 ± 0.37 | – | – | – | – | –
3 | – | 11.1 | 1 to 10 | 15.5 | – | 0.1 to 1 | < 0.1 | selective inhibitions on HDAC6 | – | 7.4 | – | Cc1nc2cc(/C=C/C(=O)NO)ccc2c(=O)n1CCc1c[nH]c2ccccc12 [Compound 1g, (2E)-3-(3-(2-(1H-indol-3-yl)ethyl)-3,4-dihydro-2-methyl-4-oxoquinazolin-7-yl)-N-hydroxyacrylamide] | – | – | – | – | – | –
4 | 14.5 ± 1.47 | 35 | 0.1 to 1 | 14.6 | 4.93 ± 1.34 | 0.1 to 1 | < 0.1 | selective inhibitions on HDAC6 | 4.93 ± 1.34 | 5.5 | 197 to 199 °C (dec.) | O=C(/C=C/c1ccc2c(=O)n(CCc3ccccc3)cnc2c1)NO [Compound 1h, (2E)-3-(3,4-dihydro-4-oxo-3-phenethylquinazolin-7-yl)-N-hydroxyacrylamide] | 14.5 ± 1.47 | – | – | – | – | –
5 | 7.21 ± 0.32 | 3.9 | 1 to 10 | 5.5 | 0.88 ± 0.45 | 1 to 10 | < 0.1 | selective inhibitions on HDAC6 | 0.88 ± 0.45 | 6.8 | 209 to 211 °C | CCc1nc2cc(/C=C/C(=O)NO)ccc2c(=O)n1CCc1ccccc1 [Compound 1i, (2E)-3-(2-ethyl-3,4-dihydro-4-oxo-3-phenethylquinazolin-7-yl)-N-hydroxyacrylamide] | 7.21 ± 0.32 | – | ≥ 10 | ≥ 10 | 1 to 10 | ≥ 10

The remaining lines, values behind:

Row | Structure (SMILES) | EC50 (PC 12 cells [1]) [µM] | IC50 [2] [µM] | IC50 [3] [µM] | IC50 [4] [µM] | EC50 (SH-SY5Y cells [5]) [µM] | IC50 [6] [µM] | IC50 [7] [µM] | selective inhibitions on HDAC6 [7] | EC50 (SH-SY5Y cells [9]) [µM] | IC50 [10] [µM] | melting point | EC50 (PC 12 cells [8]) [µM] | learning performance in rotarod test [11] | IC50 [12] [µM] | IC50 [13] [µM] | IC50 [14] [µM] | IC50 [15] [µM]
6 | Cc1nc2cccc(/C=C/C(=O)NO)c2c(=O)n1-c1ccccc1 [Compound 1a, (2E)-3-(3,4-dihydro-2-methyl-4-oxo-3-phenylquinazolin-5-yl)-N-hydroxyacrylamide] | 8.15 ± 0.39 | 10.1 | 1 to 10 | 30.2 | 14.7 ± 1.58 | > 10 | < 0.1 | – | – | – | – | – | – | – | – | – | –
7 | Cc1nc2ccc(/C=C/C(=O)NO)cc2c(=O)n1-c1ccccc1 [Compound 1b, (2E)-3-(3,4-dihydro-2-methyl-4-oxo-3-phenylquinazolin-6-yl)-N-hydroxyacrylamide] | – | 10.1 | 0.1 to 1 | 4.8 | – | 1 to 10 | < 0.1 | selective inhibitions on HDAC6 | – | – | – | – | – | – | – | – | –
8 | Cc1nc2cc(/C=C/C(=O)NO)ccc2c(=O)n1CCc1ccccc1 [Compound 1f, (2E)-3-(3,4-dihydro-2-methyl-4-oxo-3-phenethylquinazolin-7-yl)-N-hydroxyacrylamide] | 6.49 ± 0.78 | 11.7 | 1 to 10 | 43.1 | 6.77 ± 0.96 | 1 to 10 | < 0.1 | selective inhibitions on HDAC6 | 6.77 ± 0.96 | 9.5 | – | 6.49 ± 0.78 | improved learning performance | – | – | – | –
9 | Cc1nc2cc(/C=C/C(=O)Nc3ccccc3N)ccc2c(=O)n1CCc1ccccc1 [Compound 6a, (2E)-N-(2-aminophenyl)-3-(3,4-dihydro-2-methyl-4-oxo-3-phenethylquinazolin-7-yl)acrylamide] | 6.59 ± 1.06 | 13.8 | > 10 | 30.9 | 8.81 ± 1.04 | 1 to 10 | > 10 | – | 8.81 ± 1.04 | 10.7 | 246 to 248 °C (dec.) | 6.59 ± 1.06 | – | ≥ 10 | 1 to 10 | 0.1 to 1 | ≥ 10
